Results: patent publication US20070128217A1 (priority 2003, published 2007)

Legend:
[1] = system: rabbit serum obtained by immunizing a rabbit with the SARS-CoV strain Frankfurt 1; format: binding; set-up: Binding of a rabbit serum to linear peptides / Binding of a rabbit serum to looped peptides / Rabbit serum linear peptides / Rabbit serum looped peptides / Binding of a rabbit serum to linear peptides of protein N of SARS-CoV Urbani (Rabbit serum linear peptides) / Binding of a rabbit serum to looped/cyclic peptides of protein N of SARS-CoV Urbani (Rabbit serum looped peptides): unit not given here
[2] = system: control sera (pooled serum of ten healthy LUMC hospital workers; commercial negative donor pooled serum from the Dutch bloodbank); format: binding, human; set-up: Binding of Control serum LUMC to linear peptides / Binding of Control serum Blood-bank to linear peptides / Binding of Control serum LUMC to looped peptides / Binding of Control Serum Blood-Bank to Looped peptides / Binding of Control serum LUMC to linear peptides of the protein M of SARS-CoV Urbani / Binding of Control serum Blood-bank to linear peptides of the protein M of SARS-CoV Urbani / Binding of Control serum LUMC to looped peptides of the protein M of SARS-CoV Urbani / Binding of Control Serum Blood-Bank to Looped peptides of the protein M of SARS-CoV Urbani: unit not given here
[3] = system: antibodies in sera from SARS patients (sera 1a, 1b, 2, 6, 37, 62, London, SARS-yellow, SARS-green); format: binding, human; set-up: Binding of serum 6 to linear peptides of protein X1 of SARS-CoV Urbani / Binding of serum 37 to linear peptides of protein X1 of SARS-CoV Urbani / Binding of serum 6 to looped/cyclic peptide (PEPSCAN-ELISA) / Binding of serum 37 to looped/cyclic peptide (PEPSCAN-ELISA) / Binding of serum 37 to looped/cyclic peptides of protein X1 of SARS-CoV Urbani / Binding of serum 6 to linear peptides of protein X2 / Binding of serum 37 to linear peptides of protein X2 / Binding of serum 37 to looped/cyclic peptides of protein X2 of SARS-CoV Urbani / Binding of serum 6 to linear peptides of protein M of SARS-CoV Urbani / Binding of serum 37 to linear peptides of protein M of SARS-CoV Urbani / Binding of serum 6 to looped/cyclic peptides of protein M of SARS-CoV Urbani / Binding of serum 37 to looped/cyclic peptides of protein M of SARS-CoV Urbani / Binding of serum 6 to linear peptides of protein X3 of SARS-CoV Urbani / Binding of serum 37 to linear peptides of protein X3 of SARS-CoV Urbani / Binding of serum 37 to looped/cyclic peptides of protein X3 of SARS-CoV Urbani / Binding of serum 6 to linear peptides of protein X4 of SARS-CoV Urbani / Binding of serum 37 to linear peptides of protein X4 of SARS-CoV Urbani / Binding of serum 37 to looped/cyclic peptides of protein X4 of SARS-CoV Urbani / Binding of serum 6 to linear peptides of protein X5 of SARS-CoV Urbani / Binding of serum 37 to linear peptides of protein X5 of SARS-CoV Urbani / Binding of serum 37 to looped/cyclic peptides of protein X5 of SARS-CoV Urbani / Binding of serum 6 to linear peptides of protein N of SARS-CoV Urbani / Binding of serum 37 to linear peptides of protein N of SARS-CoV Urbani / Binding of serum 6 to linear peptide (PEPSCAN-ELISA) / Binding of serum 1a to looped/cyclic peptides of protein N of SARS-CoV Urbani / Binding of serum 1b to looped/cyclic peptides of protein N of SARS-CoV Urbani / Binding of serum 2 to looped/cyclic peptides of protein N of SARS-CoV Urbani / Binding of serum 6 to looped/cyclic peptides of protein N of SARS-CoV Urbani / Binding of serum 37 to looped/cyclic peptides of protein N of SARS-CoV Urbani / Binding of serum 62 to looped/cyclic peptides of protein N of SARS-CoV Urbani / Binding of serum London to looped/cyclic peptides of protein N of SARS-CoV Urbani / Binding of serum SARS-green to looped/cyclic peptides of protein N of SARS-CoV Urbani: unit not given here

FVLAAVYRINWVTGG
Rabbit serum linear peptides [1]: 0.5
Rabbit serum looped peptides [1]: 0.0
Binding of Control Serum Blood-Bank to Looped peptides of the protein M of SARS-CoV Urbani [2]: 0.6
Binding of Control serum Blood-bank to linear peptides of the protein M of SARS-CoV Urbani [2]: 0.8
Binding of Control serum LUMC to linear peptides of the protein M of SARS-CoV Urbani [2]: 0.5
Binding of Control serum LUMC to looped peptides of the protein M of SARS-CoV Urbani [2]: 0.8
Binding of serum 1a to linear peptides of protein M of SARS-CoV Urbani [3]: 0.9
Binding of serum 1a to looped/cyclic peptides of protein M of SARS-CoV Urbani [3]: 0.7
Binding of serum 1b to linear peptides of protein M of SARS-CoV Urbani [3]: 0.7
Binding of serum 1b to looped/cyclic peptides of protein M of SARS-CoV Urbani [3]: 0.6
Binding of serum 2 to linear peptides of protein M of SARS-CoV Urbani [3]: 0.6
Binding of serum 2 to looped/cyclic peptides of protein M of SARS-CoV Urbani [3]: 0.5
Binding of serum 6 to linear peptides of protein M of SARS-CoV Urbani [3]: 0.3
Binding of serum 6 to looped/cyclic peptides of protein M of SARS-CoV Urbani [3]: 0.8
Binding of serum 37 to linear peptides of protein M of SARS-CoV Urbani [3]: 0.8
Binding of serum 37 to looped/cyclic peptides of protein M of SARS-CoV Urbani [3]: 0.5
Binding of serum 62 to linear peptides of protein M of SARS-CoV Urbani [3]: 0.8
Binding of serum 62 to looped/cyclic peptides of protein M of SARS-CoV Urbani [3]: 0.6
Binding of serum London to linear peptides of protein M of SARS-CoV Urbani [3]: 0.3
Binding of serum London to looped/cyclic peptides of protein M of SARS-CoV Urbani [3]: 0.3
Binding of serum SARS-green to linear peptides of protein M of SARS-CoV Urbani [3]: 0.3
Binding of serum SARS-green to looped/cyclic peptides of protein M of SARS-CoV Urbani [3]: 0.3
Binding of serum SARS-yellow to linear peptides of protein M of SARS-CoV Urbani [3]: 0.1
Binding of serum SARS-yellow to looped/cyclic peptides of protein M of SARS-CoV Urbani [3]: 0.4

GFAAYNRYRIGNYKL
Rabbit serum linear peptides [1]: 0.2
Rabbit serum looped peptides [1]: 0.5
Binding of Control Serum Blood-Bank to Looped peptides of the protein M of SARS-CoV Urbani [2]: 0.5
Binding of Control serum Blood-bank to linear peptides of the protein M of SARS-CoV Urbani [2]: 0.7
Binding of Control serum LUMC to linear peptides of the protein M of SARS-CoV Urbani [2]: 0.8
Binding of Control serum LUMC to looped peptides of the protein M of SARS-CoV Urbani [2]: 0.6
Binding of serum 1a to linear peptides of protein M of SARS-CoV Urbani [3]: 0.6
Binding of serum 1a to looped/cyclic peptides of protein M of SARS-CoV Urbani [3]: 0.7
Binding of serum 1b to linear peptides of protein M of SARS-CoV Urbani [3]: 0.4
Binding of serum 1b to looped/cyclic peptides of protein M of SARS-CoV Urbani [3]: 0.2
Binding of serum 2 to linear peptides of protein M of SARS-CoV Urbani [3]: 0.4
Binding of serum 2 to looped/cyclic peptides of protein M of SARS-CoV Urbani [3]: 0.6
Binding of serum 6 to linear peptides of protein M of SARS-CoV Urbani [3]: 0.8
Binding of serum 6 to looped/cyclic peptides of protein M of SARS-CoV Urbani [3]: 0.7
Binding of serum 37 to linear peptides of protein M of SARS-CoV Urbani [3]: 0.5
Binding of serum 37 to looped/cyclic peptides of protein M of SARS-CoV Urbani [3]: 0.6
Binding of serum 62 to linear peptides of protein M of SARS-CoV Urbani [3]: 0.5
Binding of serum 62 to looped/cyclic peptides of protein M of SARS-CoV Urbani [3]: 0.5
Binding of serum London to linear peptides of protein M of SARS-CoV Urbani [3]: 0.4
Binding of serum London to looped/cyclic peptides of protein M of SARS-CoV Urbani [3]: 0.2
Binding of serum SARS-green to linear peptides of protein M of SARS-CoV Urbani [3]: 0.3
Binding of serum SARS-green to looped/cyclic peptides of protein M of SARS-CoV Urbani [3]: 0.2
Binding of serum SARS-yellow to linear peptides of protein M of SARS-CoV Urbani [3]: 0.1
Binding of serum SARS-yellow to looped/cyclic peptides of protein M of SARS-CoV Urbani [3]: 0.5

GFLFLAWIMLLQFAY
Rabbit serum linear peptides [1]: 0.3
Rabbit serum looped peptides [1]: 0.4
Binding of Control Serum Blood-Bank to Looped peptides of the protein M of SARS-CoV Urbani [2]: 0.6
Binding of Control serum Blood-bank to linear peptides of the protein M of SARS-CoV Urbani [2]: 0.7
Binding of Control serum LUMC to linear peptides of the protein M of SARS-CoV Urbani [2]: 0.3
Binding of Control serum LUMC to looped peptides of the protein M of SARS-CoV Urbani [2]: 0.7
Binding of serum 1a to linear peptides of protein M of SARS-CoV Urbani [3]: 0.7
Binding of serum 1a to looped/cyclic peptides of protein M of SARS-CoV Urbani [3]: 0.6
Binding of serum 1b to linear peptides of protein M of SARS-CoV Urbani [3]: 0.5
Binding of serum 1b to looped/cyclic peptides of protein M of SARS-CoV Urbani [3]: 0.6
Binding of serum 2 to linear peptides of protein M of SARS-CoV Urbani [3]: 0.5
Binding of serum 2 to looped/cyclic peptides of protein M of SARS-CoV Urbani [3]: 0.5
Binding of serum 6 to linear peptides of protein M of SARS-CoV Urbani [3]: 0.3
Binding of serum 6 to looped/cyclic peptides of protein M of SARS-CoV Urbani [3]: 0.6
Binding of serum 37 to linear peptides of protein M of SARS-CoV Urbani [3]: 0.7
Binding of serum 37 to looped/cyclic peptides of protein M of SARS-CoV Urbani [3]: 0.6
Binding of serum 62 to linear peptides of protein M of SARS-CoV Urbani [3]: 0.7
Binding of serum 62 to looped/cyclic peptides of protein M of SARS-CoV Urbani [3]: 0.6
Binding of serum London to linear peptides of protein M of SARS-CoV Urbani [3]: 0.3
Binding of serum London to looped/cyclic peptides of protein M of SARS-CoV Urbani [3]: 0.2
Binding of serum SARS-green to linear peptides of protein M of SARS-CoV Urbani [3]: 0.2
Binding of serum SARS-green to looped/cyclic peptides of protein M of SARS-CoV Urbani [3]: 0.3
Binding of serum SARS-yellow to linear peptides of protein M of SARS-CoV Urbani [3]: 0.0
Binding of serum SARS-yellow to looped/cyclic peptides of protein M of SARS-CoV Urbani [3]: 0.4

GGALIARCWYLHEGH
Rabbit serum linear peptides [1]: 0.5
Rabbit serum looped peptides [1]: 0.5
Binding of Control Serum Blood-Bank to Looped peptides [2]: 0.6
Binding of Control serum Blood-bank to linear peptides [2]: 0.5
Binding of Control serum LUMC to linear peptides [2]: 0.4
Binding of Control serum LUMC to looped peptides [2]: 0.6
Binding of serum 1a to linear peptides of protein X5 of SARS-CoV Urbani [3]: 0.8
Binding of serum 1a to looped/cyclic peptides of protein X5 of SARS-CoV Urbani [3]: 0.7
Binding of serum 1b to linear peptides of protein X5 of SARS-CoV Urbani [3]: 0.7
Binding of serum 1b to looped/cyclic peptides of protein X5 of SARS-CoV Urbani [3]: 0.6
Binding of serum 2 to linear peptides of protein X5 of SARS-CoV Urbani [3]: 0.6
Binding of serum 2 to looped/cyclic peptides of protein X5 of SARS-CoV Urbani [3]: 0.6
Binding of serum 6 to linear peptides of protein X5 of SARS-CoV Urbani [3]: 0.8
Binding of serum 6 to looped/cyclic peptides of protein X5 of SARS-CoV Urbani [3]: 0.4
Binding of serum 37 to linear peptides of protein X5 of SARS-CoV Urbani [3]: 0.7
Binding of serum 37 to looped/cyclic peptides of protein X5 of SARS-CoV Urbani [3]: 0.7
Binding of serum 62 to linear peptides of protein X5 of SARS-CoV Urbani [3]: 0.8
Binding of serum 62 to looped/cyclic peptides of protein X5 of SARS-CoV Urbani [3]: 0.7
Binding of serum London to linear peptides of protein X5 of SARS-CoV Urbani [3]: 0.7
Binding of serum London to looped/cyclic peptides of protein X5 of SARS-CoV Urbani [3]: 0.3
Binding of serum SARS-green to linear peptides of protein X5 of SARS-CoV Urbani [3]: 0.7
Binding of serum SARS-green to looped/cyclic peptides of protein X5 of SARS-CoV Urbani [3]: 0.7
Binding of serum SARS-yellow to linear peptides of protein X5 of SARS-CoV Urbani [3]: 0.3
Binding of serum SARS-yellow to looped/cyclic peptides of protein X5 of SARS-CoV Urbani [3]: 0.3
